Here are results for ten compounds from patent US11440913B2, “Aminoimidazopyridazines as kinase inhibitors” (BRISTOL-MYERS SQUIBB COMPANY, priority 2017, dated 2022).

The target in assay [1] is His-GST-TVMV-hRIPK1(1-324) (Homo sapiens (Human), UniProt Q13546). The assay is described as follows: RIPK1 HTRF Binding Assay. Particulars: HTRF binding, 1 h at rt; read-out: RIPK1 (IC50). The method in brief: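 HTRF probe-displacement binding: 1 nM His-GST-TVMV-hRIPK1(1-324) (baculovirus construct), 90.6 nM probe, 0.2 nM anti-GST-Tb in 20 mM HEPES, 10 mM MgCl2, 0.015% Brij-35, 4 mM DTT, 0.05 mg/mL BSA. Incubated 1 h at rt; FRET 520/495 nm ratio, inhibition relative to DMSO-only wells.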
Chain of His-GST-TVMV-hRIPK1(1-324) (Q13546 1-324): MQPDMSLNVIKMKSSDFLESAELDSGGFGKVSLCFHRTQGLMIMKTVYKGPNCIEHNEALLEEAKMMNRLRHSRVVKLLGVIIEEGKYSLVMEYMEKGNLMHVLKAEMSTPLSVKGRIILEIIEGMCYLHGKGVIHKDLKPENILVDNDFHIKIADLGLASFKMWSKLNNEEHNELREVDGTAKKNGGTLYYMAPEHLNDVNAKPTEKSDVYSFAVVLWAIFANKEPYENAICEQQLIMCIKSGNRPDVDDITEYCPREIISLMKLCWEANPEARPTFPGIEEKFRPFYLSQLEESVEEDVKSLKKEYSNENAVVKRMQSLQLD
In general terms: TR-FRET usually uses a lanthanide donor and a delayed reading to cut background.

Assay [2] has as its system MLKL phosphorylation in HT29-L23 human colorectal adenocarcinoma cells. The experiment in a line: MLKL Phosphorylation High-Content Assay. It is filed as cell-based. The note with it: 6 h, necroptosis induced with TNFα, SMAC mimetic and Z-VAD, read-out: pMLKL (IC50). An outline of the steps:
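HT29-L23 cells pretreated 30 min at 37 °C with compound (6.25 to 0.106 μM final), then necroptosis induced with TNFα 35 ng/mL, SMAC mimetic 700 nM and Z-VAD 140 nM for 6 h. Fixed cells immunostained for MLKL pS358 and imaged; IC50 and Ymax from 4-parameter logistic fit.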

In general, IC50 refers to the concentration that inhibits the measured activity by half.

Where a name gives a salt, the structure may show the parent alone. Read-outs that look alike come from different tables or passages of the source.

As for `CC(=O)Nc1cn2nc(-c3cc(C(=O)NCc4cc(OCC5CC5)ccc4F)c(C)nc3C)ccc2n1` [Example 326, N-{[5-(cyclopropylmethoxy)-2-fluorophenyl]methyl}-5-{2-acetamidoimidazo[1,2-b]pyridazin-6-yl}-2,6-dimethylpyridine-3-carboxamide], the concentration for half-maximal inhibition (IC50) in assay [1] was 6 nM; in assay [2] (Homo sapiens) it was 10 nM.

For the compound `[2H]C([2H])([2H])Oc1ncc(-c2ccc3nc(NC(C)=O)cn3n2)cc1C(=O)NCc1cc(F)cc(F)c1OCC1CC1` [Example 55, N-{[2-(cyclopropylmethoxy)-3,5-difluorophenyl]methyl}-5-{2-acetamidoimidazo[1,2-b]pyridazin-6-yl}-2-(D3)methoxypyridine-3-carboxamide, TFA], the IC50 in assay [1] worked out at 1 nM; in assay [2] (Homo sapiens), 3 nM.

Consider `COc1nc(C)c(-c2ccc3nc(NC(C)=O)cn3n2)cc1C(=O)NCc1cc(F)c(F)cc1OCC1CC1` [Example 284, N-{[2-(cyclopropylmethoxy)-4,5-difluorophenyl]methyl}-5-{2-acetamidoimidazo[1,2-b]pyridazin-6-yl}-2-methoxy-6-methylpyridine-3-carboxamide], for which the IC50 in assay [1] and in assay [2] (Homo sapiens) was 5 nM each time.

Turning to `COc1ncc(-c2ccc3nc(NC(C)=O)cn3n2)cc1C(=O)NC(C)c1cccc(OC(F)(F)F)c1` (centres unmarked) [Example 123, 5-{2-acetamidoimidazo[1,2-b]pyridazin-6-yl}-2-methoxy-N-{1-[3-(trifluoro-methoxy)phenyl]ethyl}pyridine-3-carboxamide], the IC50 stood at 37 nM in assay [1] and 218 nM in assay [2] (Homo sapiens).

On to `Cc1ncc(-c2ccc3nc(NC(=O)CN(C)C)cn3n2)cc1C(=O)NCC[C@H](O)c1ccc(Cl)cc1` [Example 347, N-[(3S)-3-(4-chlorophenyl)-3-hydroxypropyl]-5-{2-[2-(dimethylamino)-acetamido]-imidazo[1,2-b]pyridazin-6-yl}-2-methylpyridine-3-carboxamide], for which the IC50 turned out to be 44 nM in assay [1] and 89 nM in assay [2] (Homo sapiens).

Regarding `[2H]C([2H])([2H])[C@H](NC(=O)c1cc(-c2ccc3nc(NC(C)=O)cn3n2)cnc1C)c1cc(C(F)(F)F)ccc1F` [Example 196, 5-{2-acetamidoimidazo[1,2-b]pyridazin-6-yl}-N-[(1S)-1-[2-fluoro-5-(trifluoromethyl)phenyl](2,2,2-deutero)ethyl]-2-methylpyridine-3-carboxamide], the results for the IC50 in assay [1] and in assay [2] (Homo sapiens) were 45 nM and 5 nM, respectively.

As to “5-{2-acetamidoimidazo[1,2-b]pyridazin- 6-yl}-N-{[3-fluoro-5- (trifluoromethoxy)phenyl]methyl}-2,6- dimethylpyridine-3-carboxamide, TFA [Example 79]”, the IC50 in assay [1] is 38 nM; in assay [2], 46 nM.

For the compound `CC(=O)Nc1cn2nc(-c3cc(C(=O)NCc4cc(F)cc(F)c4OC4COC4)c(C)nc3C)ccc2n1` [Example 77, N-{[3,5-difluoro-2-(oxetan-3-yloxy)phenyl]methyl}-5-{2-acetamidoimidazo[1,2-b]pyridazin-6-yl}-2,6-dimethylpyridine-3-carboxamide], the IC50 in assay [1] amounted to 17 nM; in assay [2] (Homo sapiens) it was 265 nM.

`CC(=O)Nc1cn2nc(-c3cc(C(=O)NCc4cc(F)ccc4OC(F)(F)F)cnc3Cl)ccc2n1` [Example 322, 6-chloro-5-{2-acetamidoimidazo[1,2-b]pyridazin-6-yl}-N-{[5-fluoro-2-(trifluoromethoxy)phenyl]methyl}pyridine-3-carboxamide]: the IC50 in assay [1] worked out at 8 nM; in assay [2], 51 nM.

Consider `CNCC(=O)Nc1cn2nc(-c3cc(F)c(C)c(C(=O)NCC[C@H](O)c4ccc(Cl)cc4)c3)ccc2n1` [Example 363, N-[(3S)-3-(4-chlorophenyl)-3-hydroxypropyl]-3-fluoro-2-methyl-5-{2-[2-(methylamino)acetamido]imidazo[1,2-b]pyridazin-6-yl}benzamide], for which the values for the IC50 in assay [1] and in assay [2] (Homo sapiens) were 65 nM and 47 nM, respectively.
